Laboratory results taken from patent US5948816A, “4-substituted-2,7-dideoxy-7-fluoro-2,3-didehydro-sialic acid compounds” (priority 1996, dated 1999).
Counter-ions that a name gives are not always drawn.

Molecular target: sialidase (Influenza A virus, UniProt P03468)
Test: Influenza virus sialidase inhibition (free sialic acid released from α 2-3 sialyl-lactose, pH 5.2, 37° C., densitometry)
Type: biochemical, Influenza virus A/PR/8/34
Conditions: for IC50: α 2-3 sialyl-lactose substrate, pH 5.2, 37° C., 10 minutes

Sequence of sialidase (P03468 whole entry): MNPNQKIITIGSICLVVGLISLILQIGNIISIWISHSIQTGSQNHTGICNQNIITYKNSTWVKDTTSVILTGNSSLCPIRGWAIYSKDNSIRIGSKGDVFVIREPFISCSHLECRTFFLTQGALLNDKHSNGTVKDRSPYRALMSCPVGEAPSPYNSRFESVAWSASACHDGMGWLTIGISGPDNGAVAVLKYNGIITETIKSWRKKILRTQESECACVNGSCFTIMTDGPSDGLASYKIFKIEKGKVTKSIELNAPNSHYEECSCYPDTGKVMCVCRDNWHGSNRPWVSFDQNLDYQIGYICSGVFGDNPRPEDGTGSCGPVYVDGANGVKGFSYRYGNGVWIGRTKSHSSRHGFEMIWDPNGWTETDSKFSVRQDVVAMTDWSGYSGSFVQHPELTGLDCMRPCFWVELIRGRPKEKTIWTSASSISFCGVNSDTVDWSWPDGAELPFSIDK

Structure (SMILES) | IC50 [µM] | sialidase inhibitory activity
CC(=O)N[C@H]1[C@H]([C@H](O)[C@H](O)CO)OC(C(=O)O)=C[C@@H]1N [4-Amino-2,3-didehydrosialic acid, 4-amino-2,3-didehydrosialic acid] | 1.5 | –
CC(=O)N[C@H]1[C@H]([C@H](F)[C@H](O)CO)OC(C(=O)O)=C[C@@H]1N [5-Acetamide-4-amino-2,6-anhydro-7-fluoro-3,4,5,7-tetradeoxy-D-glycero-D-galacto-non-2-enonic acid Sodium salt] | 0.5 | very potent
CC(=O)N[C@H]1[C@H]([C@H](F)[C@H](O)CO)OC(C(=O)O)=C[C@@H]1O [7-Fluoro-2,3-didehydrosialic acid] | 2.9 | –
